“Also recorded” adds a separate entry of the source.
What was measured:
amyloid-β(1-40) E22Q = biological target: T1, amyloid-β(1-40) E22Q (Homo sapiens, UniProt P05067, E693Q); test: ELISA binding of tPA to immobilized Aβ after pre-incubation with compounds; details: for % tPA binding (after compound incubation), Aβ: 1 μg/ml coated Aβ first exposed to 500 μg/ml compound, then 80 nM tPA, control = 100
T1 construct: For similar ELISA's with DOVA and Aβ(1-40) E22Q, 1 μg/ml DOVA or Aβ was coated; purchased Peptide facility, Dutch Cancer Institute, Amsterdam; host or cells: synthetic peptide
T1 sequence (P05067 672-711 E693Q): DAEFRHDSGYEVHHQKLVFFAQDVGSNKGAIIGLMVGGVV
Protocol: (§1) Compounds were now diluted 10× in PBS/0.1% Tween20 (500 μg/ml compound). […] With this approach a further selection of the compounds was achieved. Now, compounds that at least interact with HB-AGE are selected. With the selection, similar binding assays are performed with misfolded OVA and Aβ. Finally, concentration series of the selected compounds are used in the binding studies.

heat-denatured ovalbumin = biological target: T2, heat-denatured ovalbumin (Gallus gallus, UniProt P01012); test: Thioflavin T fluorescence of ovalbumin and small compounds; set-up: species or system chicken; details: 1 mg/ml compound, 1 mg/ml OVA
T2 construct: purchased Sigma A5503
T2 sequence (P01012 1-386): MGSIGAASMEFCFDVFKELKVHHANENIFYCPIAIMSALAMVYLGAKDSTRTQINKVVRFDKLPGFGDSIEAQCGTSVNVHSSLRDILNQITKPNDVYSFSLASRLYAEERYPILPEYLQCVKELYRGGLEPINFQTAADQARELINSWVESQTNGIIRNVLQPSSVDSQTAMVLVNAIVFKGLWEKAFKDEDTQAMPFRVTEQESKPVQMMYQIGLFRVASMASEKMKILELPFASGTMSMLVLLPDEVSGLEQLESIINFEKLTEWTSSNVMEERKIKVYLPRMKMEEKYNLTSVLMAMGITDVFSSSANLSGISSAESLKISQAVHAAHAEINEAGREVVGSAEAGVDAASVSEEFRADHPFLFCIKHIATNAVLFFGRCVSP
Protocol: To establish the enhancement of Thioflavin T fluorescence by ovalbumin preparations, 90 μl of 25 μM ThT-solution in 50 mM Glycine buffer (pH 9.0) was added to 10 μl sample in duplicate wells of black 96-wells plates. Heat-denatured ovalbumin at 1 mg/ml in PBS with no addition, DMSO at a final concentration of 1% v/v, or 1 mg/ml of the compounds listed in Table 7, was used. Compound stocks are 100 mg/ml in DMSO. In addition, ovalbumin at 1 mg/ml with the same additions was first heat denatured and subsequently used in the fluorescence assay. Heat denaturation was according to the protocol given above. Fluorescence of duplicates was measured on a Thermo Fluoroskan Ascent 2.5, at 435 nm excitation and 485 nm emission wavelengths.

[1] = biological target: T3, heat-denatured misfolded ovalbumin (DOVA) (Gallus gallus, UniProt P01012); test: ELISA binding of tPA to immobilized misfolded ovalbumin after pre-incubation with compounds; set-up: species or system chicken; details: for influence on tPA binding to immobilized misfolded OVA: misfolded OVA first overlayed with compound (concentration series), then tPA; for activity at 500 µg/mL: read-out: % tPA binding (after compound incubation), DOVA
T3 construct: purchased Sigma A5503
T3 sequence (P01012 2-386 limits assumed): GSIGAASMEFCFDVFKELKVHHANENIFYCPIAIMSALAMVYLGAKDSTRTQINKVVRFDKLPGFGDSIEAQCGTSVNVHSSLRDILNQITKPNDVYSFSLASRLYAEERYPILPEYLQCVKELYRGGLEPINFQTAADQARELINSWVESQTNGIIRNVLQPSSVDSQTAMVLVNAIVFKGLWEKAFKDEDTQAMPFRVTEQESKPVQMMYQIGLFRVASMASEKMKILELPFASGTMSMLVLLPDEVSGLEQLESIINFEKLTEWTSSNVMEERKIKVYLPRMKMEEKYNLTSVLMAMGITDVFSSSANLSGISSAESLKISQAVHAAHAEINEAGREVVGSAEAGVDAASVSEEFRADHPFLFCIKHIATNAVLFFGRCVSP
Protocol: as §1

tPA/plasminogen = biological target: T4, tPA/plasminogen (Homo sapiens, UniProt P00750); test: tPA/plasminogen activation by OVA heated in the presence of compounds (substrate PNAPEP1751); assay type: biochemical; details: 25 μg/ml OVA, 25 μg/ml compound, […] DMSO
T4 construct: purchased Boehringer Ingelheim Actilyse
T4 sequence (P00750 36-562): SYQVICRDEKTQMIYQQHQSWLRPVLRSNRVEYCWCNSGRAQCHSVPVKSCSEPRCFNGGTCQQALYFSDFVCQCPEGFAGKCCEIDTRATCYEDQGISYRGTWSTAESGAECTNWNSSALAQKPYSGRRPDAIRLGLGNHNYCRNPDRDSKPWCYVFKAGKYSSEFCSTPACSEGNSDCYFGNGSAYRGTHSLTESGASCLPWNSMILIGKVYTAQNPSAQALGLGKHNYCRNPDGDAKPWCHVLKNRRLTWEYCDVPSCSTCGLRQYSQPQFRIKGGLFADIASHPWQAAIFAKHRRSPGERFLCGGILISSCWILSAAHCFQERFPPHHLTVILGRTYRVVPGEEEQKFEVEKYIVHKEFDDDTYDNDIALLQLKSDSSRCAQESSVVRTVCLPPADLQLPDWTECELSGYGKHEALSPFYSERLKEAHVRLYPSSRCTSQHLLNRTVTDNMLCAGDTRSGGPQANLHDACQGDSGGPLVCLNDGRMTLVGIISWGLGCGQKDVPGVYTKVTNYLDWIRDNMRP
Protocol: Heated OVA, either in PBS/1% DMSO (positive control), or in the same buffer in the presence of 1 mg/ml of the compounds, was used 40-fold diluted in the assay. Negative control was buffer without OVA. […] In addition, it was assessed whether the compounds interfere with absorbance readings at 405 nm, with converted chromogenic substrate. […] The yellow solution is divided over wells of an ELISA plate. […] Signals are compared and related to the control.

[2] = biological target: T5, Hb-AGE (glucose-6-phosphate modified human haemoglobin) (Homo sapiens, UniProt P68871+P69905); test: ELISA binding of tPA to immobilized Hb-AGE, compounds co-incubated with tPA; details: compound mixed with tPA, control without compound = 100
T5 construct: purchased Sigma-Aldrich H7379
T5 sequence (P69905 2-142 limits assumed): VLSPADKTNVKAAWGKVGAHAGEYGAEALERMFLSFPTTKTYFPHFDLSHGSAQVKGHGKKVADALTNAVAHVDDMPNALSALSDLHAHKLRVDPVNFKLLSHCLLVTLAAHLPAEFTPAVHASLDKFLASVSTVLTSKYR
T5 sequence (P68871 2-147 limits assumed): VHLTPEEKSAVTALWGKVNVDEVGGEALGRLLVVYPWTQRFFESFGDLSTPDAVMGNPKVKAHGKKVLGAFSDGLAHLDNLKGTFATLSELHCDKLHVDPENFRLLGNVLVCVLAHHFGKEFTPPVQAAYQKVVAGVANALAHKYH
Protocol: The small compound library is depicted in Tables 4-5. […] Binding experiments were performed in single wells per compound, in a duplicate experiment. Binding data obtained with this duplicate experiment was averaged.
• 1. […] Coat buffer in control wells. • 2. wash three times with wash buffer • 3. Block all wells with 300 μl 0.5*recommended concentration Roche blocking reagent for 30 minutes at room temperature, with agitation • 4. wash twice • 5. […] Incubate for 30 minutes at room temperature, with agitation • 7. wash five times with TBS/0.1% Tween20 • 8. […] Incubate for 30 minutes at room temperature, with agitation • 10. wash five times with TBS/0.1% Tween20 • 11. Fill wells with 3000× diluted horse raddish peroxidase-labeled polyclonal rabbit anti-mouse antibody (RAMPO, DAKOCytomation) • 12. Incubate for 20 minutes at room temperature, with agitation • 13. Wash five times with TBS/0.1% Tween20 • 14. Wash twice with PBS • 15. Stain with 100 μl TMB, stop with 50 μl 10% H2SO4 • 16. Read absorbance at 450 nm

ovalbumin = biological target: T6, ovalbumin (Gallus gallus, UniProt P01012); test: Transmission electron microscopy of ovalbumin heated in the presence of small compounds; set-up: species or system chicken; details: 1 mg/ml ovalbumin heated with 1 mg/ml compound
T6 construct: purchased Sigma A5503
T6 sequence (P01012 1-386): T2 sequence (P01012 1-386)
Protocol: For TEM analyses grids were prepared according to standard procedures. Ovalbumin samples at 1 mg/ml were applied to 100-mesh copper grids with carbon coated Formvar (Merck, Germany), and subsequently washed with PBS and H2O. Grids were applied to droplets of 2% (m/v) methylcellulose with 0.4% (m/v) uranylacetate pH 4. After a 2-minutes incubation grids were dried on a filter. Images were recorded at 80 kV, at suitable magnifications on a JEM-1200EX electron microscope (JEOL, Japan).

Hb-AGE = biological target: T7, Hb-AGE (Homo sapiens, UniProt P68871+P69905); test: ELISA binding of tPA to immobilized Hb-AGE after pre-incubation with compounds; details: Hb-AGE first overlayed with compound (concentration series), then tPA
T7 construct: purchased Sigma-Aldrich H7379
T7 sequence (P69905 2-142 limits assumed): as the sequence (P69905 2-142 limits assumed) above
T7 sequence (P68871 2-147 limits assumed): as the sequence (P68871 2-147 limits assumed) above
Protocol: Compounds were now diluted 10× in PBS/0.1% Tween20 (500 μg/ml compound). […] With the selection, similar binding assays are performed with misfolded OVA and Aβ. Finally, concentration series of the selected compounds are used in the binding studies.

SMILES | % tPA binding to Hb-AGE (co-incubation) [2] | activity at 500 µg/mL [1] | % tPA binding (after compound incubation), Aβ (amyloid-β(1-40) E22Q) | further results
Cc1ccc(C(=O)[C@@H]2[C@H]3C4COC(O4)C(=O)[C@@H]3[C@H]3C=Cc4ccccc4N32)cc1 (some centres unmarked) [compound 15] |  |  |  | influence on tPA binding to immobilized Aβ (amyloid-β(1-40) E22Q; Aβ first overlayed with compound (concentration series), then tPA): Inhibited tPA binding to immobilized misfolded protein (Aβ); influence on Thioflavin T fluorescence with misfolded OVA (heat-denatured ovalbumin): Inhibition on Thioflavin T fluorescence with misfolded OVA
Cn1ccc(O)c(C#N)c1=O [compound 51] |  |  |  | influence on tPA binding to immobilized misfolded OVA [1]: Stimulated tPA binding to immobilized misfolded protein; influence on tPA/plasminogen activation by OVA pre-heated in the presence of compound (tPA/plasminogen): Inhibition of tPA/plasminogen activation by OVA pre-heated
COc1cc2c(cc1O)CC1c3c(cc(O)c(OC)c3-2)CCN1C (centres unmarked) [compound 53] | 55% |  |  | 
COc1cc2c(cc1OC)-c1c(OC)c(OC)c(CO)c3c1C(C2)N(C)CC3 (centres unmarked) [compound 71] | 50% |  |  | 
CN1CCc2cccc3c2C1Cc1ccc(O)c(O)c1-3 (centres unmarked) [compound 85] |  | 135% |  | 
COC(=O)[C@H]1[C@H]2C[C@H]3c4[nH]c5ccccc5c4CCN3C[C@@H]2CC[C@@H]1O [compound 126, corynanthine] |  |  |  | appearance of ovalbumin heated in the presence of compound on TEM image (ovalbumin): No protein visible; influence on tPA binding to immobilized misfolded OVA [1]: Stimulated tPA binding to immobilized misfolded protein
COc1ccc2c(c1O)-c1c(OC)c(OC)cc3c1[C@H](C2)N(C)CC3 [compound 138] | 50% | 65% |  | 
COc1cc2c(cc1O)-c1c(O)c(OC)cc3c1[C@H](C2)N(C)CC3 [compound 203, Bracteoline] | 55% | 105% | 85% | 
COc1cc2c(cc1OC)-c1c(OC)c(OC)cc3ccnc(c13)C2=O [compound 204, 7-Oxoglaucine] | 70% | 80% | 55% | 
COc1cc2c(Cc3c4c5c(cc(OC)c(OC)c5c5c(OC)c(OC)ccc35)CCN4C)c3c4c(cc(OC)c(OC)c4c2cc1OC)CCN3C [compound 210, dehydroglaucine derivative] | 80% | 90% | 30% | 
COc1cc2c(cc1OC)-c1c(OC)c(OC)c(C=O)c3c1[C@H](C2)N(C)CC3 [compound 213, dehydroglaucine derivative] | 60% | 105% | 210% | 
Br.CC(=O)N1C=C(C2CCCCN2)CCC1 (centres unmarked) [compound 217, Ammophedrine HBr] |  |  |  | appearance of ovalbumin heated in the presence of compound on TEM image (ovalbumin; HBr): less OVA aggregates after heating in the presence of the; also recorded: Only small amorphous aggregates like Control; influence on tPA binding to immobilized misfolded OVA [1]: Inhibited tPA binding to immobilized misfolded protein (Hb-; influence on tPA binding to immobilized Hb-AGE (Hb-AGE): Inhibited tPA binding to immobilized misfolded protein (Hb-

From patent publication US20080267948A1, “Croos-B Structure Binding Compounds” (priority 2005, published 2008)
